Measurements published in US12023345B2, “Compositions and methods for treating lysosomal disorders” (RUSH UNIVERSITY MEDICAL CENTER, priority 2014, dated 2024).

Key:
[1] = system: TFEB; details: cells from patients suffering from LINCL; cited from earlier work
[2] = system: Tfeb; assay: Tfeb mRNA by quantitative real-time PCR in mouse primary astrocytes; type: cell-based; details: serum free media, 12 hrs, single doses or combination
Protocol: Isolation of Primary Mouse Astroglia: Astroglia were isolated from mixed glial cultures as described (24, 25) according to the procedure of Giulian and Baker (26). Briefly, on day 9, the mixed glial cultures were washed three times with Dulbecco's modified Eagle's medium/F-12 and subjected to shaking at 240 rpm for 2 h at 37° C. on a rotary shaker to remove microglia. After 2 days, the shaking was repeated for 24 h for the removal of oligodendroglia and to ensure the complete removal of all nonastroglial cells. The attached cells were seeded onto new plates for further studies. Quantitative Real-Time PCR: The mRNA quantification was performed using the ABIPrism7700 sequence detection system (Applied Biosystems, Foster City, CA) using SYBR Select master mix (Applied Biosystems). The mRNA expression of the targeted genes was normalized to the level of Gapdh mRNA and data was processed by the ABI Sequence Detection System 1.6 software.

[3] = system: TFEB; details: cited from earlier work
[4] = 500 mg SAM given together with aspirin 1300 mg; cited from earlier work
[5] = system: Tfeb; assay: TFEB mRNA by semi-quantitative RT-PCR in mouse primary astrocytes; type: cell-based; details: different concentrations, 5 hr, serum-free
Protocol: Semi-Quantitative Reverse Transcriptase-Coupled Polymerase Chain Reaction (RT-PCR): Total RNA was isolated from mouse primary astrocytes and human primary astrocytes using RNA-Easy Qiagen (Valencia, CA) kit following manufactures protocol. Semi-quantitative RTPCR was carried out as described earlier (28) using oligo (dT) 12-18 as primer and moloney murine leukemia virus reverse transcriptase (MMLV-RT, Invitrogen) in a 20 μl reaction mixture. The resulting cDNA was appropriately amplified using Promega Master Mix (Madison, WI) and the following primers (Invitrogen) for murine genes: […]
Amplified products were electrophoresed on 2% agarose (Invitrogen) gels and visualized by ethidium bromide (Invitrogen) staining. Glyceraldehyde-3-phosphate dehydrogenase (Gapdh) mRNA was used as a loading control to ascertain that an equivalent amount of cDNA was synthesized from each sample.
Mouse primary astrocytes were incubated with different concentrations (see FIG. 9) of simvastatin and pravastatin (A), (B), cinnamic acid (C), and sodium phenylbutyrate and sodium benzoate (D) for 5 hr. under serum-free condition followed by monitoring the mRNA expression of TFEB by semi-quantitative RT-PCR. Sodium formate (D) was used as a negative control for sodium phenylbutyrate and sodium benzoate.

In the case of 2-hydroxypropyl-β-cyclodextrin, the “TFEB-mediated clearance of proteolipid aggregates” value [1] is given as “promotes TFEB-mediated clearance of proteolipid aggregates”.
With `CC1=C(/C=C/C(C)=C/C=C/C(C)=C/C(=O)O)C(C)(C)CCC1` [ATRA, all-trans retinoic acid] the “Tfeb mRNA expression (qRT-PCR)” value [2] was “increased expression of Tfeb”.
In the case of `O=c1c(-c2ccc(O)cc2)coc2cc(O)cc(O)c12` [Genistein, 5,7-dihydroxy-3-(4-hydroxyphenyl)-4H-1-benzopyran-4-one], the “TFEB levels and activity, lysosomal biogenesis” value [3] is listed as “induction of TFEB levels and activity as well as lysosomal biogenesis”.
For `C[S+](CC[C@H](N)C(=O)[O-])C[C@H]1O[C@@H](n2cnc3c(N)ncnc32)[C@H](O)[C@@H]1O` (stereo partly shown) [S-adenosyl-methionine], the “reduction of the amount of stomach damage” value [4] is given as 90%.
In the case of `O=C(O)C=Cc1ccccc1` [cinnamic acid], the “TFEB mRNA expression (semi-quantitative RT-PCR)” value [5] is reported as “upregulation of TFEB mRNA expression”.
In the case of `Cc1ccc(C)c(OCCCC(C)(C)C(=O)O)c1` [gemfibrozil], the “Tfeb mRNA expression (qRT-PCR)” value [2] is reported as “increased expression of Tfeb”.
With `O=C([O-])c1ccccc1.[Na+]` [sodium benzoate] the “TFEB mRNA expression (semi-quantitative RT-PCR)” value [5] was “upregulation of TFEB mRNA expression”.
